Results on eight compounds are retold here after article PMC11915372, “Identification of a Series Containing a Pentafluorophenyl Moiety That Targets Pks13 to Inhibit Growth of Mycobacterium tuberculosis” (ACS Infectious Diseases, 2025).

The structures appear in SMILES notation. In brackets after ≈: the same amount, converted by molar mass. Read-outs that look alike come from different tables or passages of the source.

The nature of data set [1]: physchem. Type of data set: physicochemical.
The format of data set [2] is in vitro ADME, mouse.
The test system of data set [3] is HepG2 cells. Nature of the data set: HepG2 cytotoxicity. The conditions noted are these: Homo sapiens.
Text: Assays to establish HepG2 cytotoxicity, in vitro microsomal/hepatocyte metabolic stability, aqueous kinetic solubility, and in vivo pharmacokinetic profiles were all performed as previously described.[15],[35]−[37]
Data set [4] concerns M. tuberculosis (H37Rv). Nature of the data set: microbe, parasite or virus in culture. Type of data set: cell-based, Mycobacterium tuberculosis. The conditions noted are these: Mycobacterium tuberculosis, H37RV.
The format of data set [5] is in vitro ADME, mouse. This is another data set of the same source.
The mark [6] stands for this setting: pH 7.4, aqueous buffer, kinetic from dmso stock.
Setting [7] is: HepG2, read-out: HepG2 inhibitory concentration (IC50).
The mark [8] stands for this setting: read-out: Wk2_ 7H9/DPPC/ cholesterol/BSA/ Tyloxapol MIC.
[9] abbreviates: read-out: Wk2_7H9/glucose/ BSA/Tyloxapol MIC.
[10] abbreviates: read-out: Wk2_7H9/glucose/ casitone/ Tyloxapol MIC.
[11] abbreviates: read-out: Wk2_7H9/DPPC/ casitone/ Tyloxapol MIC.

On to `Fc1c(F)c(F)c(-c2nc3c(N4CCOCC4)ncnc3s2)c(F)c1F` [Compound 9, Fc1c(c(c(c(c1F)F)-c1nc2c(ncnc2s1)N1CCOCC1)F)F], for which the solubility kinetic in data set [1] (setting [6]) and in data set [1] (read-out: Kin. Sol) was 2.8 µM (≈ 1.09 µg/mL) each time. The “Microsomal Cli” value in data set [2] (CD1, mouse) turned out to be 43 mL/min/g. Besides, the “Mouse micro Cl” value in data set [2] (mouse, microsomes) worked out at 43 mLmin/g. Further, the IC50 in data set [3] (setting [7]) is greater than 100 µM. The MIC in data set [4] (read-out: H37Rv MIC B) came to 0.6 µM (≈ 0.233 µg/mL); in data set [4] (setting [8]), 0.6 µM (≈ 0.233 µg/mL); in data set [4] (setting [9]) it was 0.6 µM (≈ 0.233 µg/mL); in data set [4] (setting [10]), 0.07 µM (≈ 0.0272 µg/mL).
Turning to `Fc1c(F)c(F)c(-c2nc3c(N4CCOCC4)ncnc3o2)c(F)c1F` [Compound 10, Fc1c(c(c(c(c1F)F)-c1nc2c(ncnc2o1)N1CCOCC1)F)F], the solubility kinetic in data set [1] (kinetic from dmso stock, kinetic solubility in water, read-out: Kin. Sol) was determined as 13.6 µM (≈ 5.06 µg/mL); in data set [1] (pH 7.4, aqueous buffer, kinetic from dmso stock, pH7.4, read-out: Kinetic Solubility pH7.4), 14 µM (≈ 5.21 µg/mL). Further, the “Mouse micro Cl” value in data set [2] (intrinsic clearance (Cli), CD1 mouse liver microsomes, Tables 1-4) is given as 44 mLmin/g. Moreover, the “Microsomal Cli” value in data set [2] (supplement data table) was 44 mL/min/g. Further, the “Mouse Heps Cl” value in data set [5] (intrinsic clearance (Cli), mouse hepatocytes, Tables 1-4) is given as greater than 50 mLmin/g. In addition, the “Hepatocyte Cli” value in data set [5] (supplement data table) is on record as greater than 50 mL/min/g. Besides, the IC50 in data set [3] (setting [7]) was found to be 49 µM; in data set [3] (HepG2, read-out: Hs-HEPG IC50), 48 µM. Further, the MIC stood at 0.2 µM (≈ 0.0745 µg/mL) in data set [4] (read-out: H37Rv MIC A); 1.2 µM (≈ 0.447 µg/mL) in data set [4] (read-out: H37Rv MIC B); 0.2 µM (≈ 0.0745 µg/mL) in data set [4] (setting [11]); 1.2 µM (≈ 0.447 µg/mL) in data set [4] (setting [8]); 1.2 µM (≈ 0.447 µg/mL) in data set [4] (setting [9]); 0.15 µM (≈ 0.0558 µg/mL) in data set [4] (setting [10]).
With `Fc1c(F)c(F)c(-c2nc3cncnc3s2)c(F)c1F` [Compound 11, Fc1c(c(c(c(c1F)F)-c1nc2cncnc2s1)F)F], the solubility kinetic in data set [1] (setting [6]) and in data set [1] (read-out: Kin. Sol) was 103 µM (≈ 31.2 µg/mL) each time. Further, the “Microsomal Cli” value in data set [2] (CD1, mouse) was found to be 18 mL/min/g. In addition, the “Mouse micro Cl” value in data set [2] (mouse, microsomes) came out at 18 mLmin/g. The IC50 in data set [3] (setting [7]) amounted to 35 µM. Also, the MIC in data set [4] (read-out: H37Rv MIC A) was found to be 0.34 µM (≈ 0.103 µg/mL); in data set [4] (read-out: H37Rv MIC B), 6.3 µM (≈ 1.91 µg/mL); in data set [4] (setting [11]), 0.342 µM (≈ 0.104 µg/mL); in data set [4] (setting [8]) it was 6.3 µM (≈ 1.91 µg/mL); in data set [4] (setting [9]), 4.7 µM (≈ 1.43 µg/mL); in data set [4] (setting [10]), 0.279 µM (≈ 0.0846 µg/mL).
Regarding `CNc1ncnc2oc(-c3c(F)c(F)c(F)c(F)c3F)nc12` [Compound 12, CNc1ncnc2oc(nc12)-c1c(c(c(c(c1F)F)F)F)F], the solubility kinetic is 227 µM (≈ 71.8 µg/mL) in data set [1] (setting [6]) and 228 µM (≈ 72.1 µg/mL) in data set [1] (read-out: Kin. Sol). In addition, the “Microsomal Cli” value in data set [2] (CD1, mouse) was less than 0.5 mL/min/g. For the same compound, in data set [2] (mouse, microsomes), the “Mouse micro Cl” value turned out to be 0.5 mLmin/g. The “Hepatocyte Cli” value in data set [5] (mouse) amounted to 4.7 mL/min/g. Also, the “Mouse Heps Cl” value in data set [5] (mouse, hepatocytes) is given as 4.7 mLmin/g. For the same compound, in data set [3] (setting [7]), the IC50 is greater than 100 µM. The MIC in data set [4] (read-out: H37Rv MIC A), in data set [4] (read-out: H37Rv MIC B), in data set [4] (setting [11]), in data set [4] (setting [8]), in data set [4] (setting [9]) and in data set [4] (setting [10]) was greater than 50 µM throughout.
For `CN(C)c1ccnc2oc(-c3c(F)c(F)c(F)c(F)c3F)nc12` [Compound 13, CN(C)c1ccnc2oc(nc12)-c1c(c(c(c(c1F)F)F)F)F], the solubility kinetic in data set [1] (setting [6]) and in data set [1] (read-out: Kin. Sol) was 1.6 µM (≈ 0.527 µg/mL) throughout. The “Microsomal Cli” value in data set [2] (CD1, mouse) was greater than 50 mL/min/g. Moreover, the “Mouse micro Cl” value in data set [2] (mouse, microsomes) is greater than 50 mLmin/g. The “Hepatocyte Cli” value in data set [5] (mouse) is greater than 50 mL/min/g. For the same compound, the “Mouse Heps Cl” value in data set [5] (mouse, hepatocytes) is given as greater than 50 mLmin/g. Further, the MIC in data set [4] (read-out: H37Rv MIC A) came out at 0.6 µM (≈ 0.198 µg/mL); in data set [4] (read-out: H37Rv MIC B), 3.1 µM (≈ 1.02 µg/mL); in data set [4] (setting [11]), 0.6 µM (≈ 0.198 µg/mL); in data set [4] (setting [8]) it was 3.1 µM (≈ 1.02 µg/mL); in data set [4] (setting [9]) it was 2.3 µM (≈ 0.757 µg/mL); in data set [4] (setting [10]), 0.6 µM (≈ 0.198 µg/mL).
`CN(C)c1nccc2oc(-c3c(F)c(F)c(F)c(F)c3F)nc12` [Compound 14, CN(C)c1nccc2oc(nc12)-c1c(c(c(c(c1F)F)F)F)F]: the “Microsomal Cli” value in data set [2] (CD1, mouse) was greater than 50 mL/min/g. Moreover, the “Mouse micro Cl” value in data set [2] (mouse, microsomes) is given as greater than 50 mLmin/g. Also, the “Hepatocyte Cli” value in data set [5] (mouse) is listed as greater than 50 mL/min/g. Moreover, in data set [5] (mouse, hepatocytes), the “Mouse Heps Cl” value is on record as greater than 50 mLmin/g. Further, the IC50 in data set [3] (setting [7]) is greater than 100 µM. Also, the MIC in data set [4] (read-out: H37Rv MIC A) worked out at 3.1 µM (≈ 1.02 µg/mL); in data set [4] (read-out: H37Rv MIC B), 9.4 µM (≈ 3.09 µg/mL); in data set [4] (setting [11]), 3.1 µM (≈ 1.02 µg/mL); in data set [4] (setting [8]) it was 9.4 µM (≈ 3.09 µg/mL); in data set [4] (setting [9]) it was 6.3 µM (≈ 2.07 µg/mL); in data set [4] (setting [10]) it was 3.1 µM (≈ 1.02 µg/mL).
Take `Oc1ncnc2oc(-c3c(F)c(F)c(F)c(F)c3F)nc12` [Compound 15, Oc1ncnc2oc(nc12)-c1c(c(c(c(c1F)F)F)F)F]: the solubility kinetic in data set [1] (setting [6]) and in data set [1] (read-out: Kin. Sol) was 149 µM (≈ 45.2 µg/mL) each time. In addition, the “Microsomal Cli” value in data set [2] (CD1, mouse) was found to be 2.8 mL/min/g. The “Mouse micro Cl” value in data set [2] (mouse, microsomes) was 2.81 mLmin/g. For the same compound, the “Hepatocyte Cli” value in data set [5] (mouse) is given as greater than 50 mL/min/g. Also, the “Mouse Heps Cl” value in data set [5] (mouse, hepatocytes) is reported as greater than 50 mLmin/g. Also, in data set [3] (setting [7]), the IC50 is 88 µM. Moreover, the MIC came out at 1.4 µM (≈ 0.424 µg/mL) in data set [4] (read-out: H37Rv MIC A); 9.4 µM (≈ 2.85 µg/mL) in data set [4] (read-out: H37Rv MIC B); 1.4 µM (≈ 0.424 µg/mL) in data set [4] (setting [11]); 9.4 µM (≈ 2.85 µg/mL) in data set [4] (setting [8]); 5.4 µM (≈ 1.64 µg/mL) in data set [4] (setting [9]); 3.9 µM (≈ 1.18 µg/mL) in data set [4] (setting [10]).
Consider `COC(=O)c1cccnc1NC(=O)c1c(F)c(F)c(F)c(F)c1F` [Compound 17, COC(=O)c1cccnc1NC(=O)c1c(c(c(c(c1F)F)F)F)F], for which, in data set [2] (CD1, mouse), the “Microsomal Cli” value was 47 mL/min/g. Besides, in data set [2] (mouse, microsomes), the “Mouse micro Cl” value was found to be 47 mLmin/g. Further, the IC50 in data set [3] (setting [7]) is greater than 100 µM. Besides, the MIC is 9.4 µM (≈ 3.25 µg/mL) in data set [4] (read-out: H37Rv MIC A); greater than 50 µM in data set [4] (read-out: H37Rv MIC B); 9.4 µM (≈ 3.25 µg/mL) in data set [4] (setting [11]); greater than 50 µM in data set [4] (setting [8]); greater than 50 µM in data set [4] (setting [9]); 12.5 µM (≈ 4.33 µg/mL) in data set [4] (setting [10]).
